Assay results: ChEMBL document CHEMBL1126271, “Benzazepinone calcium channel blockers. 5. Effects on antihypertensive activity associated with N1 and aromatic substituents” (J Med Chem, 1992)

Experiments:
Assay type in all cases: functional
Rattus norvegicus [1] = test: Antihypertensive activity 0-6 hr after 135 umol/kg p.o. in rats.
Oryctolagus cuniculus = organism: Oryctolagus cuniculus; test: In vitro vasorelaxant activity in circumferential strips of potassium-depolarized rabbit aorta.
Rattus norvegicus [2] = test: Antihypertensive activity 12-18 hr after 135 umol/kg p.o. in rats.
Rattus norvegicus [3] = test: Antihypertensive activity 6-12h after 135 umol/kg p.o. in rats.
Rattus norvegicus [4] = organism: Rattus norvegicus; test: Extent of hydrolysis of C3 acetyl group of 0.4 mM of compound 30 min after exposure by rat liver homogenate
Rattus norvegicus [5] = organism: Rattus norvegicus; test: Extent of hydrolysis of C3 acetyl group of 0.4 mM of compound 5 min after exposure by rat liver homogenate

| IC50 (Oryctolagus cuniculus) | SMILES | Decrease in blood pressure (Rattus norvegicus [1]) | Decrease in blood pressure (Rattus norvegicus [2]) | Decrease in blood pressure (Rattus norvegicus [3]) | Hydrolysis (Rattus norvegicus [4]) | Hydrolysis (Rattus norvegicus [5]) |
| --- | --- | --- | --- | --- | --- | --- |
| 1900 nM | COc1ccc(C2Cc3cc(C(F)(F)F)ccc3N(CCN(C)C)C(=O)C2OC(C)=O)cc1 (stereo unspecified) |  |  |  |  |  |
| 370 nM | COc1ccc([C@@H]2Sc3cc(OC)ccc3N(C[C@@H]3CCCN3)C(=O)[C@@H]2O)cc1 | 32% | 23% | 33% |  |  |
| 130 nM | COc1ccc(C2Sc3cc(OC)ccc3N(CCN(C)C)C(=O)C2OC(C)=O)cc1 (racemic) | 34% | 19% | 21% |  |  |
| 120 nM | COc1ccc([C@@H]2Sc3cc(OC)ccc3N(C[C@@H]3CCCN3)C(=O)[C@@H]2OC(C)=O)cc1 | 42% | 37% | 39% | 7% | 3% |
| 100 nM | COc1ccc([C@@H]2Cc3c(cccc3C(F)(F)F)N(C[C@@H]3CCCN3)C(=O)[C@@H]2O)cc1 | 32% | 21% | 21% |  |  |
| 130 nM | COc1ccc([C@@H]2Cc3c(Cl)cccc3N(C[C@@H]3CCCN3)C(=O)[C@@H]2O)cc1 | 19% | 13% | 15% |  |  |
| 120 nM | COc1ccc([C@@H]2Cc3c(Cl)cccc3N(C[C@@H]3CCCN3)C(=O)[C@@H]2OC(C)=O)cc1 | 18% | 20% | 17% | 17% | 7% |
| 1320 nM | COc1ccc([C@@H]2Sc3ccccc3N(C[C@@H]3CCCN3)C(=O)[C@@H]2O)cc1 | 10% | 9% | 10% |  |  |

More lines, now with the values behind:

| SMILES | IC50 (Oryctolagus cuniculus) | Decrease in blood pressure (Rattus norvegicus [1]) | Decrease in blood pressure (Rattus norvegicus [2]) | Decrease in blood pressure (Rattus norvegicus [3]) | Hydrolysis (Rattus norvegicus [4]) | Hydrolysis (Rattus norvegicus [5]) |
| --- | --- | --- | --- | --- | --- | --- |
| COc1ccc([C@@H]2Cc3cc(OC)ccc3N(C[C@@H]3CCCN3)C(=O)[C@@H]2OC(C)=O)cc1 | 230 nM | 39% | 31% | 33% | 3% | 3% |
| COc1ccc([C@@H]2Sc3ccccc3N(C[C@@H]3CCCN3)C(=O)[C@@H]2OC(C)=O)cc1 | 340 nM | 18% | 10% | 8% | 57% | 32% |
| COc1ccc([C@@H]2Cc3cc(C(F)(F)F)ccc3N(CCN(C)C)C(=O)[C@@H]2OC(C)=O)cc1 |  | 19% |  |  |  |  |
| COc1ccc([C@@H]2Cc3cc(OC)ccc3N(C[C@@H]3CCCN3)C(=O)[C@@H]2O)cc1 | 1120 nM | 18% | 18% | 19% |  |  |
| COc1ccc([C@@H]2Cc3ccccc3N(CCN(C)C)C(=O)[C@@H]2OC(C)=O)cc1 | 2990 nM |  | 13% |  | 53% | 18% |
| COc1ccc([C@@H]2Cc3cc(Cl)ccc3N(CCN(C)C)C(=O)[C@@H]2OC(C)=O)cc1 |  | 12% | 12% | 12% |  |  |
| COc1ccc([C@@H]2Cc3c(cccc3C(F)(F)F)N(CCN(C)C)C(=O)[C@@H]2OC(C)=O)cc1 |  | 29% | 29% | 29% | 2% | 0% |
| COc1ccc([C@@H]2Cc3c(cccc3C(F)(F)F)N(C[C@@H]3CCCN3)C(=O)[C@@H]2OC(C)=O)cc1 |  | 44% | 38% |  | 0% | 0% |
| COc1ccc(C2Cc3c(Cl)cccc3N(CCN(C)C)C(=O)C2OC(C)=O)cc1 (racemic) |  | 10% |  |  |  |  |
| COc1ccc([C@@H]2Sc3ccccc3N(CCN(C)C)C(=O)[C@@H]2OC(C)=O)cc1 [DILTIAZEM] |  | 20% | 19% |  | 100% | 68% |
